Measurements: patent US7858635B2 (priority 2005, dated 2010)
Where two headings read alike, the source gives them in different places.

Experiments:
M1 muscarinic receptor = target: T1, M1 muscarinic receptor (Homo sapiens, UniProt P11229); test: Functional mobilization of intracellular calcium (FLIPR, Fluo-3), M1-CHO cells; format: cell-based; details: for Emax: 100% efficacy is the maximum response obtained with the Carbachol control, read-out: M1 Efficacy
T1 construct: expressed in transfected cells; host or cells: CHO cells (M1-CHO, under zeocin and G418 selection)
T1 sequence (P11229 1-460): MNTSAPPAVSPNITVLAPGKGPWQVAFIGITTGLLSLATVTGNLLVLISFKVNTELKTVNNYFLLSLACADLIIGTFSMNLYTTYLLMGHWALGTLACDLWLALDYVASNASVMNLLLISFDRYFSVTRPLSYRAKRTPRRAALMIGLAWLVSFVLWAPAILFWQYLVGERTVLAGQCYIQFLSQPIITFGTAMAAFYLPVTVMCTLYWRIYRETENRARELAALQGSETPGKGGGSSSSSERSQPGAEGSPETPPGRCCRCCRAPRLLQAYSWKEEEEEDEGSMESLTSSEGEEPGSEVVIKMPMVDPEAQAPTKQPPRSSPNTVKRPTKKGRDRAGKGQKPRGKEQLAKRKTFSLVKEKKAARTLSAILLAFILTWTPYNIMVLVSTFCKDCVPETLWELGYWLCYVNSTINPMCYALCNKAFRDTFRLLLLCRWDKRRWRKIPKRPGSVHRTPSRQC
Method in brief: (§1)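 Intracellular calcium was tracked by fluorescence (488/540 nm) over 60 sec after compound addition to dye-loaded CHO cells expressing the receptor. Inhibitory activity used a 15 min pre-incubation before carbachol at the subtype EC80.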

M4 muscarinic receptor = target: T2, M4 muscarinic receptor (Homo sapiens, UniProt P08173); test: Functional mobilization of intracellular calcium (FLIPR, Fluo-3), M4-CHO cells; format: cell-based; details: for Emax: 100% efficacy is the maximum response obtained with the Carbachol control, read-out: M4 Efficacy
T2 construct: expressed in transfected cells; host or cells: CHO cells (M4-CHO, under puromycin, zeocin and blasticidin selection)
T2 sequence (P08173 1-479): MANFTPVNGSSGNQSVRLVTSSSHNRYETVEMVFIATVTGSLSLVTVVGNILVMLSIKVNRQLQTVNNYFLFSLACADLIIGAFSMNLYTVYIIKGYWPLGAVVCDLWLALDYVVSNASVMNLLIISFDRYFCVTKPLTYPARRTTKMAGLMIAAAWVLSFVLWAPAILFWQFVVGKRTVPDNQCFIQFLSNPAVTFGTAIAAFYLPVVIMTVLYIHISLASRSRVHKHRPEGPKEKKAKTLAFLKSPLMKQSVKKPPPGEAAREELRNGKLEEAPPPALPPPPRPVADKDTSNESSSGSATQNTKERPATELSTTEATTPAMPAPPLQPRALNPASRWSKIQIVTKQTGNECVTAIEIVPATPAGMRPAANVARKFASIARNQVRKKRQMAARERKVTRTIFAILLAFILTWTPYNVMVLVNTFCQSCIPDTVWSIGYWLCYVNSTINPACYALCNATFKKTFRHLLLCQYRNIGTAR
Method in brief: as §1

[1] = compound nos. 1-454, M1-CHO cells, calcium mobilization
[2] = compound nos. 1-454, M4-CHO cells, calcium mobilization

Row | SMILES | Emax (M1 muscarinic receptor; compound nos. 1-454) [%] | M1 Activity (M1 muscarinic receptor; [1]) | Emax (M4 muscarinic receptor; compound nos. 1-454) [%] | M4 Activity (M4 muscarinic receptor; [2]) | M1 Activity (M1 muscarinic receptor; compound nos. 1-454) | M4 Activity (M4 muscarinic receptor; compound nos. 1-454) | Emax (M1 muscarinic receptor; compound nos. 455-509) [%] | M1 Activity (M1 muscarinic receptor; compounds 455-509) | Emax (M4 muscarinic receptor; compound nos. 455-509) [%] | M4 Activity (M4 muscarinic receptor; compounds 455-509)
1 | Cc1ccc2c(c1)C1(CCN(C3CC4CCC3C4)CC1)CN2S(C)(=O)=O (stereo not shown) [compound 232] | < 65 | ++ (activity was measured to be between 0.7 μM and 3.0 μM) | > 70 | +++ (activity was measured to be less than or equal to 0.1 μM) |  |  |  |  |  | 
2 | CCOC(=O)N1CCC(N2CCC3(CC2)CN(C(=O)N2CCOCC2)c2ccc(F)cc23)CC1 [compound 290] | < 65 | +++ (activity was measured to be less than or equal to 0.7 μM) | < 55 | + (activity was measured to be greater than or equal to 4.0 μM) |  |  |  |  |  | 
3 | CC(=O)N1CC2(CCN(C3CC4CCC(C3)N4C(=O)OC(C)C)CC2)c2cc(F)ccc21 (stereo not shown) [compound 94] | < 65 | +++ (activity was measured to be less than or equal to 0.7 μM) | < 55 | ++ (activity was measured to be between 0.1 μM and 4.0 μM) |  |  |  |  |  | 
4 | COC(=O)N1CC2(CCN(C3CC4CCC(C3)N4C(=O)OC)CC2)c2cc(F)ccc21 (stereo not shown) [compound 235] | 65 to 85 | ++ (activity was measured to be between 0.7 μM and 3.0 μM) | 55 to 70 | + (activity was measured to be greater than or equal to 4.0 μM) |  |  |  |  |  | 
5 | CC(=O)N1CC2(CCN(CC3CCN(C(=O)O[C@@H]4CCOC4)CC3)CC2)c2cc(F)ccc21 [compound 14] | 65 to 85 | +++ (activity was measured to be less than or equal to 0.7 μM) | > 70 | +++ (activity was measured to be less than or equal to 0.1 μM) |  |  |  |  |  | 
6 | CC(C)(C)COC(=O)N1C2CCC1CC(N1CCC3(CC1)COc1ccc(F)cc13)C2 (stereo not shown) [compound 247] | 65 to 85 | ++ (activity was measured to be between 0.7 μM and 3.0 μM) | > 70 | + (activity was measured to be greater than or equal to 4.0 μM) |  |  |  |  |  | 
7 | CCOC(=O)N1C2CCC1CC(N1CCC3(CC1)CN(C(=O)OCCOC)c1ccc(F)cc13)C2 (stereo not shown) [compound 90] | 65 to 85 | ++ (activity was measured to be between 0.7 μM and 3.0 μM) | < 55 | + (activity was measured to be greater than or equal to 4.0 μM) |  |  |  |  |  | 
8 | C#CCCOC(=O)N1C2CCC1CC(N1CCC3(CC1)CN(C(=O)N(C)C)c1ccc(F)cc13)C2 (stereo not shown) [compound 230] | < 65 | + (activity was measured to be greater than or equal to 3.0 μM) | > 70 | ++ (activity was measured to be between 0.1 μM and 4.0 μM) |  |  |  |  |  | 
9 | CC(=O)N1CC2(CCN(C3CCCN(C(=O)OC(C)C)CC3)CC2)c2cc(F)ccc21 (stereo not shown) [compound 395] | < 65 |  | < 55 |  | +++ (activity was measured to be less than or equal to 0.7 μM) | + (activity was measured to be greater than or equal to 4.0 μM) |  |  |  | 
10 | CC(=O)N1CC2(CCN(C3CC4CCC(C3)N4C(=O)OC3CCC3)CC2)c2cc(F)ccc21 (stereo not shown) [compound 174] | > 85 | +++ (activity was measured to be less than or equal to 0.7 μM) | 55 to 70 | + (activity was measured to be greater than or equal to 4.0 μM) |  |  |  |  |  | 
11 | CC#CCOC(=O)N1CCC(N2CCC3(CC2)CN(C(C)=O)c2ccc(F)cc23)CC1 [compound 102] | 65 to 85 | +++ (activity was measured to be less than or equal to 0.7 μM) | 55 to 70 | ++ (activity was measured to be between 0.1 μM and 4.0 μM) |  |  |  |  |  | 
12 | COCCOC(=O)N1C2CCC1CC(N1CCC3(CC1)COc1ccc(F)cc13)C2 (stereo not shown) [compound 378] | 65 to 85 |  | 55 to 70 |  | ++ (activity was measured to be between 0.7 μM and 3.0 μM) | + (activity was measured to be greater than or equal to 4.0 μM) |  |  |  | 
13 | CC(=O)N[C@H]1CC2(CCN(C3CCCCCCC3)CC2)c2ccccc21 [compound 261] | < 65 | ++ (activity was measured to be between 0.7 μM and 3.0 μM) | < 55 | + (activity was measured to be greater than or equal to 4.0 μM) |  |  |  |  |  | 
14 | CN(C)C(=O)N1CC2(CCN(C3CCN(c4nncs4)CC3)CC2)c2ccccc21 [compound 495] |  |  |  |  |  |  | 25 to 100 | + (activity was measured to be greater than or equal to 5.0 μM) | 25 to 100 | + (activity was measured to be greater than or equal to 5.0 μM)
15 | COC(=O)N1CC2(CCN(C3CC4CCC(C3)N4C(=O)O[C@H]3CCOC3)CC2)c2cc(F)ccc21 (stereo partly shown) [compound 96] | 65 to 85 | ++ (activity was measured to be between 0.7 μM and 3.0 μM) | < 55 | + (activity was measured to be greater than or equal to 4.0 μM) |  |  |  |  |  | 
16 | CC(=O)N1CC2(CCN(C3CCN(C(=O)OC(C)C)CC3)CC2)c2cc(F)ccc21 [compound 269] | 65 to 85 | +++ (activity was measured to be less than or equal to 0.7 μM) | > 70 | +++ (activity was measured to be less than or equal to 0.1 μM) |  |  |  |  |  | 
17 | CCOC(=O)N1CCC(N2CCC3(CC2)CN(C(C)=O)c2ccc(CC)cc23)CC1 [compound 137] | > 85 | +++ (activity was measured to be less than or equal to 0.7 μM) | > 70 | + (activity was measured to be greater than or equal to 4.0 μM) |  |  |  |  |  | 
18 | COc1ccccc1N1CCC(N2CCC3(CC2)CN(C(=O)N(C)C)c2ccc(F)cc23)CC1 [compound 440] | 65 to 85 |  | 55 to 70 |  | ++ (activity was measured to be between 0.7 μM and 3.0 μM) | ++ (activity was measured to be between 0.1 μM and 4.0 μM) |  |  |  | 
19 | CCCC1CCC(N2CCC3(CC2)CNc2ccc(Cl)cc23)CC1 (stereo not shown) [compound 341] | < 65 | + (activity was measured to be greater than or equal to 3.0 μM) | < 55 | + (activity was measured to be greater than or equal to 4.0 μM) |  |  |  |  |  | 
20 | CCOC(=O)N1CCC(N2CCC3(CC2)CN(C(=O)OC(C)C)c2ccc(F)cc23)CC1 [compound 145] | > 85 | +++ (activity was measured to be less than or equal to 0.7 μM) | > 70 | + (activity was measured to be greater than or equal to 4.0 μM) |  |  |  |  |  | 
21 | CCOC(=O)N1CCC(N2CCC3(CC2)CN(C(=O)OCCF)c2ccc(F)cc23)CC1 [compound 370] | 65 to 85 | +++ (activity was measured to be less than or equal to 0.7 μM) | > 70 | ++ (activity was measured to be between 0.1 μM and 4.0 μM) |  |  |  |  |  | 
22 | CCOC(=O)N1C2CCC1CC(N1CCC3(CC1)CN(C(C)=O)c1ccc(C)cc13)C2 (stereo not shown) [compound 9] | 65 to 85 | +++ (activity was measured to be less than or equal to 0.7 μM) | 55 to 70 | + (activity was measured to be greater than or equal to 4.0 μM) |  |  |  |  |  | 
23 | CN(C)C(=O)N1CC2(CCN(C3CCN(c4cnc(-c5ccncc5)cn4)CC3)CC2)c2ccccc21 [compound 467] |  |  |  |  |  |  | > 100 | +++ (activity was measured to be less than or equal to 2.0 μM) | 25 to 100 | + (activity was measured to be greater than or equal to 5.0 μM)
24 | O=C(OC1CCC1)N1CC2(CCN(C3CC4CCC(C3)N4C(=O)O[C@H]3CCOC3)CC2)c2cc(F)ccc21 (stereo partly shown) [compound 125] | 65 to 85 | +++ (activity was measured to be less than or equal to 0.7 μM) | < 55 | ++ (activity was measured to be between 0.1 μM and 4.0 μM) |  |  |  |  |  | 
25 | CCOC(=O)N1CCC(N2CCC3(CC2)CN(C(C)=O)c2ccc(C4CC4)cc23)CC1 [compound 245] | < 65 | ++ (activity was measured to be between 0.7 μM and 3.0 μM) | > 70 | ++ (activity was measured to be between 0.1 μM and 4.0 μM) |  |  |  |  |  | 
